Measurements published in patent publication US20030005484A1, “Microbiocidal and pesticidal aromatic aldehydes” (ProGuard, Inc., priority 1994, published 2003).

Tests used:
powdery mildew = powdery mildew on roses, disease rating / MPDC after foliar spray; type: in vivo, Sphaerotheca pannosa; conditions: for Mean % Disease Control, rose powdery mildew: single 100 ml foliar spray; for Mean Percentage of Disease Control (MPDC), powdery mildew: five week trial
Method: Each formulation is evaluated for its effect on specific pests and/or plant host using any of the compounds of formula (1) as well as other components of the formulation such as Tween 80 and/or sodium bicarbonate, with the combination and effective amount of each component adapted for a particular application to minimize toxicity while maintaining or increasing the antipathogenic effect of the formulation. The effective amount of each component may be determined by systematically varying the amount of that component in a test formulation, treating a plant of interest with the test formulation, and monitoring the level of pest infestation compared to an untreated control plant. An effective amount of a test component is identified as the amount that controls the growth of the pathogen on the plant host, thus reducing the disease rating of the plant. The mean percentage disease […] (MPDC) can be calculated for each particular application. MPDC is defined by the formula: [formula] Eight cultivars of rose were tested to investigate the effect of a cinnamic aldehyde/NaHCO3 formulation on rust and spores. The cultivars used included Moss unnamed (Moss), […], Rosette Delize (Hybrid Tea), Rosa Rugosa Rubra (Rugosa), Abel Morrison (Hybrid perpetual), John Laing, Betty Prior, and Rose de Roi. […] The Hybrid Tea and Hybrid perpetual were rated 3 and the Rugosa was rated 1. […] Control plants received no treatment. […] Moreover, the treatment appeared to have induced systemic resistance. […] Plants were an average of 0.86 m apart. […] Controls were untreated plants. […] Weekly reviews were made of the various plants. […] of infected rose in dedicated experimental rose gardens were used. Four Mrs. John Laing (Hybrid perpetual) and two Marchionese of Londonderry (Hybrid perpetual) rose plants were treated with one of two formulations of coniferyl aldehyde. […] The first two Mrs. […] Mrs. […] Both Marchionese of Londonderry plants (P5 and P6) were rated 5 for powdery mildew and rust after Paulus and Nelson (supra). Two treatment formulae were used for this trial. […] Control plants were sprayed with water alone. The change in the rating from pre-treatment to post-treatment was calculated as the mean percentage of disease control (MPDC) as described herein. A three treatment experiment with cinnamic aldehyde formula, coniferyl aldehyde formula and combined cinnamic and coniferyl aldehyde formula was carried out on field grown roses known to be susceptible to powdery mildew. The plants were blocked by variety before fungicide treatments and were randomized as to the plants. Two varieties were used in each of the three experiments described below. […] In experiment 3 Comte de Chambord (Portland) and Madame Pierre Oger (Bourbon) were used. In Experiment 1, the effect of cinnamic aldehyde alone and in combination with Tween 80 and/or NaHCO3 component was evaluated in experiment 2 the effect of coniferyl aldehyde alone and in combination with Tween 80 and/or NaHCO3 was evaluated and in experiment 3 a combination of cinnamic aldehyde and coniferyl aldehyde with Tween 80 and/or NaHCo3 was evaluated. […] See Table 3 for the treatment protocol; formula 1 was used for these experiments. […] Plants were evaluated using the Paulus/Nelson scale just prior to and four days after treatment. […] Moreover, cinnamic aldehyde, coniferyl aldehyde, Tween 80 and NaHCO3 are used in the food industry and there is likely to be little toxicological risk to the consumer or handler from any horticultural or food crop sprayed in this way. Similarly, as these chemicals leave no toxic residue, there is little chance of any detrimental effect on the wider environment, and their use is likely to be compatible with current biological control methods such as beneficial insects and/or microorganisms.

Spider Mites = assay: spider mites on cabernet sauvignon grapevines, 0.3% spray; type: in vivo; conditions: 0.3% CNMA; two days after spraying; untreated 17.9
Method: The effect of 0.3% cinnamic aldehyde on leafhoppers and spider mites on grapevine leaves was examined. 30% cinnamic aldehyde was diluted 1:100 in water and sprayed one time on a 1 acre block of cabernet sauvignon grapevines in a vineyard using a 300 gal Pul-Blast rsprayer at 160 psi. 120 gal. were applied to one acre of vineyard. As a control, a one-acre block remained untreated. Blocks were pseudo-replicated so as to obtain an indication of the reliability of the treatment. Prior to treatment mites on leaves were pre-counted using a dissecting microscope. Leafhopper numbers also were determined in the field prior to treatment. Two days after spraying, two leaves, one from the basal portion and one from the proximal portion of the vine were examined from 16 vines from 2 rows for each treatment. Leaf samples also were taken from both sides of the vines (north and south) to include variation due to vine exposure. […]

pacific mites = pacific mites on Chardonnay grapes, 0.4% spray; type: in vivo
Method: The effect of 0.4% cinnamic aldehyde on powdery mildew and pacific mites on grapes was examined. Cinnamic aldehyde was diluted to 0.4% in water and sprayed onto a 1.8 acre test plot of Chardonnay grapevines with a tractor drawn, PTO powered sprayer, spraying at approximately 100 psi at a rate of 150 gal./acre. A 3 acre untreated plot served as a negative control. Additional controls included treatment of a 3.8 acre plot with stylet oil and a plot treated with a mix of Rubigan, Omite, and stylet oil, which cost appriximately $60.00/acre. Spray cards were placed randomly through the test block. Ten fruit clusters, which were generally completely covered with powdery mildew, in each of the four fields were flagged. […] Therefore, cinnamic aldehyde was effective at controlling both powdery mildew and pacific mites on grapes.

[1] = tested on: thrips insects (Frankliniella occidentalis); assay: residual activity on filter paper against thrips; type: in vivo; conditions: residue on filter paper, rehydrated 24 and 72 hours after spraying; thrips mortality after one hour
Method: In the first experiment, two ml of two concentrations of CNMA (0.3 and 1%) were sprayed on filter paper (Whatman). As a negative control, two ml of water also were sprayed on filter paper. Twenty-four hours later, two ml of water were sprayed on treatment and control filter paper, which were then dried for 30 min. Approximately 30 thrips insects (Frankliniella occidentalis) were introduced and the number of F. occidentalis were observed after one hour. Mean mortality was calculated for each treatment.
After 72 hours, the treatment filter papers were flipped over and only the negative control filter paper and the filter paper treated with 1% CNMA were sprayed with 2 ml of water and allowed to dry for 30 minutes. Approximately 30 thrips were introduced to the two treated filter papers and after one hour the number of dead F. occidentalis were observed and the mean mortality calculated for each treatment. A similar assay was conducted using a-hexyl cinnamaldehyde. Mean mortality was higher for rehydrated filter papers compared to non-rehydrated filter papers over time.

[2] = CNMA 0.4% in water, 150 gal./acre, controls stylet oil, chemical mix

With O=C/C=C/c1ccccc1 [cinnamic aldehyde] the “Mean % Disease Control, rose powdery mildew” value (“Mean % Disease Control” below) (powdery mildew; aldehyde 5 g (mixture 2.5 g + 2.5 g) with NaHCO3 (80 g), four days) was 56%, the “Mean % Disease Control” value (powdery mildew; aldehyde 5 g (mixture 2.5 g + 2.5 g) with T80 (10 g), four days) was 44% and the “Mean % Disease Control” value (powdery mildew; aldehyde 5 g (mixture 2.5 g + 2.5 g) with T80 + NaHCO3 (formulas G, M, Q), four days) was 94%. For the same compound, the “Mean % Disease Control” value (powdery mildew; aldehyde 5 g (mixture 2.5 g + 2.5 g), no additive, rated four days after treatment) was 50%, the “Mean Percentage of Disease Control (MPDC), powdery mildew” value (from here on “Mean Percentage of Disease Control”) (powdery mildew; field rose Betty Prior, same single spray) was 64.3% and the “Mean Percentage of Disease Control” value (powdery mildew; field rose John Laing, single spray 5 g cinnamic aldehyde, 10 g Tween 80, 80 g NaHCO3 per 1000 g) was 98.3%. The “Mean Percentage of Disease Control” value (powdery mildew; field rose Rose de Roi, same single spray) was 100%, the “MPDC, powdery mildew, average for all three roses” value (powdery mildew; field roses John Laing, Betty Prior, Rose de Roi, same single spray) was 90.7% and the “time plants remained free of powdery mildew and rust” value (powdery mildew; potted or field roses sprayed to runoff with emulsion of cinnamic aldehyde and sodium bicarbonate, concomitantly saponin) was “up to 56 days”. For the same compound, the “powdery mildew after a single treatment” value (powdery mildew; potted roses, ~100 ml foliar spray of 5 g cinnamic aldehyde, 80 g NaHCO3, 10 g Tween 80 per 1000 g, weekly saponin, observed 8 weeks) was “eradicative”, the MITES/LEAF (Spider Mites) was 3.27 and the “% INHIBITION (MITES)” value (pacific mites; [2]) was 96%. For the same compound, the “MITES POST-SPRAY” value (pacific mites; [2]) was 1.6, the “MITES PRE-SPRAY” value (pacific mites; baseline, CNMA 0.4% plot, stylet oil plot, chemical mix plot) was 36 and the residual activity [1] was “have residual activity”.
